Results published in publication PMC10041525, “New Dual Inhibitors of Bacterial Topoisomerases with Broad-Spectrum Antibacterial Activity and In Vivo Efficacy against Vancomycin-Intermediate Staphylococcus aureus” (Journal of Medicinal Chemistry, 2023).
Read-outs that look alike come from different tables or passages of the source.

Tests used:
S. pneumoniae ATCC 49619 = tested on: S. pneumoniae ATCC 49619; design: method as in earlier work; conditions: QC range for S. pneumoniae ATCC 49619, ref CLSI; cited from earlier work
E. coli ATCC 25922 = tested on: E. coli ATCC 25922; design: method as in earlier work; conditions: QC range for E. coli ATCC 25922, ref CLSI; cited from earlier work
E. faecium (n = 13) = experiment: MIC broth microdilution at IHMA Europe; type: cell-based; conditions: Enterococcus faecium, read-out: MIC
A. baumannii ATCC 17978 = experiment: IHMA QC MIC; type: cell-based; conditions: Acinetobacter baumannii, ATCC17978, read-out: MIC (QC, repeated tests)
Method: (§1) The panel of Hungarian clinical isolates and controls measured following the same method as detailed above, and albeit measurements were carried out in 384-well microtiter plates (Corning Inc.).

E. coli ATCC 35218 = experiment: IHMA QC MIC; type: cell-based; conditions: Escherichia coli, ATCC35218, read-out: MIC (QC, repeated tests)
Method: as §1

[1] = tested on: 100 A. baumannii strains (50 MDR, 50 non-MDR); experiment: MIC broth microdilution at IHMA Europe, panel of 100 strains; type: cell-based; conditions: Acinetobacter baumannii

Question: With C[C@H]1COc2c(N3CCN(C)CC3)c(F)cc3c(=O)c(C(=O)O)cn1c23.C[C@H]1COc2c(N3CCN(C)CC3)c(F)cc3c(=O)c(C(=O)O)cn1c23.O [Levofloxacin, levofloxacin] as the compound, how does the “MIC, CLSI Range” value (S. pneumoniae ATCC 49619) read?
Answer: 0,5 - 2 µg/mL

Question: What about the “MIC, CLSI Range” value (E. coli ATCC 25922) of the same compound?
Answer: 0,008 - 0,06 µg/mL

Question: What about the MIC (E. faecium (n = 13); E. faecium IHMA N° 1764866) of the same compound?
Answer: > 32 µg/mL

Question: What about the MIC (E. faecium (n = 13); E. faecium IHMA N° 1765436) of the same compound?
Answer: > 32 µg/mL

Question: What about the MIC (E. faecium (n = 13); E. faecium IHMA N° 1765746) of the same compound?
Answer: > 32 µg/mL

Question: And the MIC (E. faecium (n = 13); E. faecium IHMA N° 1893573)?
Answer: > 32 µg/mL

Question: What about the MIC (E. faecium (n = 13); E. faecium IHMA N° 1893846) of the same compound?
Answer: > 32 µg/mL

Question: And the MIC (E. faecium (n = 13); E. faecium IHMA N° 1893942)?
Answer: > 32 µg/mL

Question: What about the MIC (E. faecium (n = 13); E. faecium IHMA N° 1894055) of the same compound?
Answer: > 32 µg/mL

Question: And the MIC (E. faecium (n = 13); E. faecium IHMA N° 1897027)?
Answer: > 32 µg/mL

Question: And the MIC (E. faecium (n = 13); E. faecium IHMA N° 1897101)?
Answer: > 32 µg/mL

Question: And the MIC (E. faecium (n = 13); E. faecium IHMA N° 1904592)?
Answer: 32 µg/mL

Question: And the MIC (E. faecium (n = 13); E. faecium IHMA N° 2075051)?
Answer: > 32 µg/mL

Question: And the MIC (E. faecium (n = 13); E. faecium IHMA N° 2077718)?
Answer: > 32 µg/mL

Question: What about the MIC (E. faecium (n = 13); E. faecium IHMA N° 2083787) of the same compound?
Answer: 32 µg/mL

Question: And the MIC (A. baumannii ATCC 17978)?
Answer: ≤ 0.25 µg/mL

Question: And the MIC (E. coli ATCC 35218)?
Answer: ≤ 0.25 µg/mL

Question: And the MIC ([1]; A. baumannii IHMA 1769393, Lithuania 2018, Non-MDR)?
Answer: ≤ 0.25 µg/mL

Question: And the MIC ([1]; A. baumannii IHMA 1769782, Israel 2018, MDR)?
Answer: 4 µg/mL

Question: And the MIC ([1]; A. baumannii IHMA 1769910, Israel 2018, Non-MDR)?
Answer: ≤ 0.25 µg/mL

Question: What about the MIC ([1]; A. baumannii IHMA 1790317, Czech Republic 2018, Non-MDR) of the same compound?
Answer: ≤ 0.25 µg/mL

Question: What about the MIC ([1]; A. baumannii IHMA 1790916, Romania 2018, Non-MDR) of the same compound?
Answer: ≤ 0.25 µg/mL

Question: What about the MIC ([1]; A. baumannii IHMA 1791877, Israel 2018, MDR) of the same compound?
Answer: 4 µg/mL

Question: What about the MIC ([1]; A. baumannii IHMA 1792961, Jordan 2018, MDR) of the same compound?
Answer: 8 µg/mL

Question: What about the MIC ([1]; A. baumannii IHMA 1795669, Tunisia 2018, Non-MDR) of the same compound?
Answer: ≤ 0.25 µg/mL

Question: What about the MIC ([1]; A. baumannii IHMA 1814276, Lebanon 2018, MDR) of the same compound?
Answer: 16 µg/mL

Question: What about the MIC ([1]; A. baumannii IHMA 1815198, Kuwait 2018, MDR) of the same compound?
Answer: 16 µg/mL

Question: What about the MIC ([1]; A. baumannii IHMA 1815856, Israel 2018, MDR) of the same compound?
Answer: 8 µg/mL

Question: And the MIC ([1]; A. baumannii IHMA 1821468, South Africa 2018, Non-MDR)?
Answer: ≤ 0.25 µg/mL

Question: What about the MIC ([1]; A. baumannii IHMA 1829500, Georgia 2018, Non-MDR) of the same compound?
Answer: ≤ 0.25 µg/mL

Question: What about the MIC ([1]; A. baumannii IHMA 1830924, United Kingdom 2018, Non-MDR) of the same compound?
Answer: ≤ 0.25 µg/mL

Question: And the MIC ([1]; A. baumannii IHMA 1849819, Kuwait 2018, MDR)?
Answer: 16 µg/mL

Question: What about the MIC ([1]; A. baumannii IHMA 1849829, Kuwait 2018, Non-MDR) of the same compound?
Answer: ≤ 0.25 µg/mL

Question: What about the MIC ([1]; A. baumannii IHMA 1857118, Slovenia 2018, Non-MDR) of the same compound?
Answer: ≤ 0.25 µg/mL

Question: What about the MIC ([1]; A. baumannii IHMA 1863631, France 2018, Non-MDR) of the same compound?
Answer: ≤ 0.25 µg/mL

Question: And the MIC ([1]; A. baumannii IHMA 1870054, United States 2018, Non-MDR)?
Answer: ≤ 0.25 µg/mL

Question: And the MIC ([1]; A. baumannii IHMA 1884428, Italy 2018, Non-MDR)?
Answer: ≤ 0.25 µg/mL

Question: What about the MIC ([1]; A. baumannii IHMA 1884990, Germany 2018, Non-MDR) of the same compound?
Answer: ≤ 0.25 µg/mL

Question: What about the MIC ([1]; A. baumannii IHMA 1900538, Turkey 2018, Non-MDR) of the same compound?
Answer: ≤ 0.25 µg/mL

Question: And the MIC ([1]; A. baumannii IHMA 1913773, Kenya 2018, Non-MDR)?
Answer: ≤ 0.25 µg/mL

Question: And the MIC ([1]; A. baumannii IHMA 1926285, Qatar 2018, Non-MDR)?
Answer: ≤ 0.25 µg/mL

Question: What about the MIC ([1]; A. baumannii IHMA 1926288, Qatar 2018, MDR) of the same compound?
Answer: > 16 µg/mL

Question: What about the MIC ([1]; A. baumannii IHMA 1957343, Portugal 2019, Non-MDR) of the same compound?
Answer: ≤ 0.25 µg/mL

Question: And the MIC ([1]; A. baumannii IHMA 1963732, Turkey 2019, MDR)?
Answer: 16 µg/mL

Question: And the MIC ([1]; A. baumannii IHMA 1967860, Spain 2019, Non-MDR)?
Answer: ≤ 0.25 µg/mL

Question: What about the MIC ([1]; A. baumannii IHMA 1971673, Latvia 2019, MDR) of the same compound?
Answer: 16 µg/mL

Question: And the MIC ([1]; A. baumannii IHMA 1975075, Israel 2019, Non-MDR)?
Answer: ≤ 0.25 µg/mL

Question: And the MIC ([1]; A. baumannii IHMA 1977077, Kuwait 2019, Non-MDR)?
Answer: ≤ 0.25 µg/mL

Question: And the MIC ([1]; A. baumannii IHMA 1983151, Greece 2019, MDR)?
Answer: 8 µg/mL

Question: And the MIC ([1]; A. baumannii IHMA 1984665, Lithuania 2019, MDR)?
Answer: 16 µg/mL

Question: And the MIC ([1]; A. baumannii IHMA 1986678, Turkey 2019, Non-MDR)?
Answer: ≤ 0.25 µg/mL

Question: And the MIC ([1]; A. baumannii IHMA 1986738, Turkey 2019, MDR)?
Answer: 16 µg/mL

Question: And the MIC ([1]; A. baumannii IHMA 1987162, Croatia 2019, MDR)?
Answer: 8 µg/mL

Question: What about the MIC ([1]; A. baumannii IHMA 1993615, Turkey 2019, MDR) of the same compound?
Answer: 8 µg/mL

Question: What about the MIC ([1]; A. baumannii IHMA 1994284, Italy 2019, MDR) of the same compound?
Answer: > 16 µg/mL

Question: And the MIC ([1]; A. baumannii IHMA 1995161, Czech Republic 2019, Non-MDR)?
Answer: ≤ 0.25 µg/mL

Question: What about the MIC ([1]; A. baumannii IHMA 1997936, Morocco 2019, Non-MDR) of the same compound?
Answer: ≤ 0.25 µg/mL

Question: And the MIC ([1]; A. baumannii IHMA 1999178, Belgium 2019, Non-MDR)?
Answer: ≤ 0.25 µg/mL

Question: And the MIC ([1]; A. baumannii IHMA 2003279, Turkey 2019, MDR)?
Answer: 8 µg/mL

Question: What about the MIC ([1]; A. baumannii IHMA 2014367, Jordan 2019, Non-MDR) of the same compound?
Answer: ≤ 0.25 µg/mL

Question: And the MIC ([1]; A. baumannii IHMA 2014931, South Africa 2019, Non-MDR)?
Answer: ≤ 0.25 µg/mL

Question: And the MIC ([1]; A. baumannii IHMA 2019315, Romania 2019, Non-MDR)?
Answer: ≤ 0.25 µg/mL

Question: What about the MIC ([1]; A. baumannii IHMA 2020360, Croatia 2019, MDR) of the same compound?
Answer: 16 µg/mL

Question: What about the MIC ([1]; A. baumannii IHMA 2031511, Greece 2019, Non-MDR) of the same compound?
Answer: ≤ 0.25 µg/mL

Question: What about the MIC ([1]; A. baumannii IHMA 2031524, Greece 2019, MDR) of the same compound?
Answer: 4 µg/mL

Question: What about the MIC ([1]; A. baumannii IHMA 2034657, Tunisia 2019, Non-MDR) of the same compound?
Answer: ≤ 0.25 µg/mL

Question: What about the MIC ([1]; A. baumannii IHMA 2035089, Serbia 2019, MDR) of the same compound?
Answer: 16 µg/mL

Question: What about the MIC ([1]; A. baumannii IHMA 2035134, Serbia 2019, Non-MDR) of the same compound?
Answer: ≤ 0.25 µg/mL

Question: And the MIC ([1]; A. baumannii IHMA 2038976, Hungary 2019, MDR)?
Answer: 8 µg/mL
